From US8039619B2, “Process for preparing (2R,3S/2S,3R)-2-(2,4-difluorophenyl)-3-(5-fluoropyrimidin-4-yl)-1-(1H-1,2,4-triazol-1-yl)butan-2-ol” (Dr. Reddy's Laboratories Limited, priority 2004, dated 2011)
≈ marks a conversion by molar mass, not a printed value.

Assay: Solubility comparison at room temperature
Format: physicochemical
Conditions: organic solvent or mixture
Text: Solubility comparison at room temperature (values in mg/l): […]

C[C@@H](c1ncncc1F)[C@](O)(Cn1cncn1)c1ccc(F)cc1F [Crystalline Form B, (2R,3S)-2-(2,4-diflurophenyl)-3-(5-fluoropyrimidin-4-yl)-1-(1H-1,2,4-triazol-1-yl) -butan-2-ol]
solubility (Acetone): 250 µg/mL (≈ 716 µM)
solubility (Methanol): 125 µg/mL (≈ 358 µM)
